pIC50: −log10 of the molar value. The source made the active and inactive calls. No cut-off for these calls is given here.
Tests used:
[1] = test system: T98G; assay: Cytotoxicity against human T98G cells assessed as reduction in cell viability at 3.5 to 350 uM incubated for 48 hrs by MTT assay relative to control; type: toxicity, cell-based; details: dose 3.5-350 µM
[2] = test system: T98G; assay: Binding affinity to sulfatase in human T98G cells assessed as reduction in fluorescence intensity at 125 uM in presence of 2-(2-Morpholinoethyl)-6-(((2S,3R,4S,5S,6R)-3,4,5-trihydroxy-6-(hydroxymethyl)tetrahydro-2H-pyran-2-yl)oxy)-1H-benzo[de]-isoquinoline-1,3(2H)-dione by confocal fluorescence microscopic analysis; type: cell-based
[3] = Inhibition of lysosome sulfatase (unknown origin) assessed as reduction in fluorescence intensity using 2-(2-Morpholinoethyl)-6-(((2S,3R,4S,5S,6R)-3,4,5-trihydroxy-6-(hydroxymethyl)tetrahydro-2H-pyran-2-yl)oxy)-1H-benzo[de]-isoquinoline-1,3(2H)-dione as substrate incubated for 60 mins by fluorescence based analysis; type: subcellular, Homo sapiens
[4] = organism: Homo sapiens; assay: Binding affinity to lysosome sulfatase (unknown origin) assessed as Km; type: subcellular
[5] = Drug localization in lysosome of human T98G cells by Lyso-Tracker Red based confocal laser scanning microscopy; type: ADME, cell-based
[6] = organism: Homo sapiens; assay: Binding affinity to sulfatase in human liver S9 fraction; type: subcellular
[7] = test system: T98G; assay: Cytotoxicity against human T98G cells assessed as reduction in cell viability incubated for 4 hrs by MTT assay; type: toxicity, cell-based
[8] = test system: T98G; assay: Binding affinity to sulfatase in human T98G cells assessed as increase in fluorescence intensity at 40 uM by confocal fluorescence microscopic analysis; type: cell-based
[9] = organism: Homo sapiens; assay: Binding affinity to lysosome sulfatase (unknown origin) assessed as Vmax; type: subcellular

Compound | Activity [1] [%] | Activity [2] | pIC50 [3] | Km [4] [µM] | Drug uptake [5] | Activity [6] | Activity [7] | Activity [8] | Vmax [9] [nmol/min/mg]
CC1(C)[C@H](C(=O)O)N2C(=O)C[C@H]2S1(=O)=O [SULBACTAM] | 34 | Active | 5.46 | – | – | – | – | – | –
O=C1c2cccc3c(O[C@@H]4O[C@H](CO)[C@@H](O)[C@H](O)[C@H]4O)ccc(c23)C(=O)N1CCN1CCOCC1 | – | – | – | 21.6 | Active | Active | Non-Toxic | Active | 70.9

From ChEMBL document CHEMBL5149990, “New Protocol-Guided Exploitation of a Lysosomal Sulfatase Inhibitor to Suppress Cell Growth in Glioblastoma Multiforme” (J Med Chem, 2021)
